In PubChem BioAssay AID518 (Sanford-Burnham Center for Chemical Genomics, 2006):

Molecular target: Alkaline phosphatase, tissue-nonspecific isozyme (Homo sapiens) (UniProt P05186)
Assay: inhibition of tissue-nonspecific alkaline phosphatase – biochemical, luminescent (AID 518)
Conditions: purified TNAP enzyme, luminescent substrate readout

Alkaline phosphatase, tissue-nonspecific isozyme (Homo sapiens), sequence (P05186 whole entry, looked up): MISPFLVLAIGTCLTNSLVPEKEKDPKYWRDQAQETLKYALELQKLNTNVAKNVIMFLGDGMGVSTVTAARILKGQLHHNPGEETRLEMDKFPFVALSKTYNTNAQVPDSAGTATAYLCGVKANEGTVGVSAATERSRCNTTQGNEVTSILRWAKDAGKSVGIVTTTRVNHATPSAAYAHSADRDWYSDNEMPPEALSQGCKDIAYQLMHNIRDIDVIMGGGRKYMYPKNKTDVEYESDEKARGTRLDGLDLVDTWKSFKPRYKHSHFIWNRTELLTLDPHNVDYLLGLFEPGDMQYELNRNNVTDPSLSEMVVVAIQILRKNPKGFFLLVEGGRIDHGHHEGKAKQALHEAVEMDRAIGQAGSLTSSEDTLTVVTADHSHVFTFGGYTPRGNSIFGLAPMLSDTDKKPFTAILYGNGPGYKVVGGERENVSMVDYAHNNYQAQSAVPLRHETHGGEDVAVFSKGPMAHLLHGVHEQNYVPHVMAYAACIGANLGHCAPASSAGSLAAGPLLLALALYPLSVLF

Structure (SMILES)	IC50 [nM]
COCc1[nH]nc2c1C(c1cc(OC)c(O)c(OC)c1)C(C#N)=C(N)O2 (stereo not drawn)	5250
C/C(N)=C(/C#N)C(=O)CSc1n[nH]c(-c2ccccc2Br)n1	1730
O=C1C2CC=CCC2C(=O)N1c1n[nH]c(Cc2ccccc2)n1 (stereo not drawn)	330
